Measured values as given in patent US12661404B2, “Methods and materials for tissue ablation” (Mayo Foundation for Medical Education and Research, priority 2020, dated 2026).

How the values were obtained:
VX2 liver tumor = test system: VX2 liver tumor
Procedure: To visualize normal liver parenchyma on CT imaging, rats received a bolus injection of 400 μL of the alkaline earth metal-based nanoparticle suspension, Exitron nano 12000 (Miltenyi Biotec, Auburn, CA) two hours prior to micro-CT scanning. Rats were anesthetized using inhalation of 2-3% isoflurane in 100% 02 at a constant flow rate of 2 L/minute and placed on a cassette equipped with a warming system and continuous gas exchange and integrated real-time motion detection camera. Fixed rat tissues were placed and immobilized using styrofoam beads inside a humidified plastic chamber. […] The 3D image stacks were reconstructed using NRecon software and InstaRecon CBR Server (version: 1.7.4.6, Bruker, Kontich, Belgium) following adjustment of random movements, beam-hardening correction, and ring artifact reduction and smoothing. 3D volume rendering was visualized using CTVox software (version: 3.3. 0 r1383, Bruker, Kontich, Belgium). The stacks were virtually rotated and axially oriented to yield transverse projections of select volume of interest (VOI) using Data Viewer software (Bruker, Kontich, Belgium).

[1] = test system: patient derived cholangiocarcinoma, pancreas adenocarcinoma cell lines and HepG2 hepatocellular carcinoma cells; details: three cell lines, serially diluted 25-0.048% w/v, 24 or 48 hours
Procedure: (§1) To determine synergy and the concentration of a chemotherapy agent such as doxorubicin to co-administer with LATTE, cell culture experiments were performed.
(§2) HepG2 human liver cancer cell line (ATCC CRL10741; American Type Culture Collection, Manassas, VA, USA) were cultured in 75 cm^2 flasks using growth medium consisting of low glucose Dulbecco's Modified Eagle Medium (DMEM, ThermoFisher) and 10% heat-inactivated bovine serum that was supplemented with 100 IU penicillin and 10 μg/mL streptomycin (Thermo Fisher Scientific). […] The anticancer activity of LATTE on HepG2 was determined using WST-1 reagent (2-(4-Iodophenyl)-3-(4-nitrophenyl)-5-(2,4-disulfophenyl)-2H-tetrazolium sodium) assay as an indication of viability/cytotoxicity treatment. WST-1 viability assay is based on the reduction of tetrazolium salt, WST-1 to an […] formazan dye by electron transport across the plasma membrane in viable cells that alter the optical density of the media. […] At the end of the incubation period, the medium was discarded, and the wells were rinsed three times with DPBS solution followed by addition of 100 μL growth medium and 10 μL of freshly prepared WST-1 reagent into each well and then incubated for 2 hours inside the 5% CO2 incubator at 37° C. After the incubation period, the optical percent density was measured using a microplate reader at a wavelength of 450 nm (SpectraMax iD5, Molecular Devices, San Jose, CA). Cell viability was calculated relative to control wells that received the growth medium alone. Viability rate was calculated as follows: Viability (%)=[…].

[2] = test system: pancreas ductal adenocarcinoma (Panc-1) cells; details: Panc-1, 24 hours incubation, WST-1
Procedure: as §1, §2

[3] = test system: Cholangiocarcinoma (SNU-478) cells; details: SNU-478, 24 hours incubation, WST-1
Procedure: as §1, §2

human blood clot = test system: human blood clot
Procedure: In a separate experiment blood coagulation was induced in uncougulated human. A blood volume of 4 mL citrated blood loaded into a polypropylene tube and mixed with 400 μL of 0.2 M calcium chloride (CaCl2) for 10 seconds. Aliquouts of 100 μL were deposited into multiple wells on a 96 well plate and the remaining blood volume was kept in the tube. Coagulation was initiated by incubating the samples at 37° C. for 10 minutes.

[4] = rat, in vivo
Procedure: Next, in vivo experiments in immunocompetent rats bearing the highly malignant orthotropic N1S1 liver tumors were ablated using LATTE. Percutaneous injection of LATTE was performed and assessment also included CT imaging to mimic the clinical scenario. […] These tumors also received high-resolution in vivo micro-CT imaging following intravenous injection of Exitron contrast agent to allow accurate segmentation of the liver tumors (FIG. 1p-q). […] These tumors at two-weeks were also harvested and evaluated by histology.
All procedures were approved by the institutional animal care and use committee and performed according to institutional guidelines. […] N1S1 cells were maintained in suspension in a 75 cm^2 culture flasks at 37° C. in a 5% CO2 humidified chamber. […] To prepare the cells for inoculation, N1S1 cell aliquots were rinsed and suspended in plain IMDM (without antibiotics or serum) to yield 2×10^6 cells in 100 μL of fresh aliquots for each inoculation. The rat liver was surgically exposed through upper midline laparotomy under isoflurane anesthesia followed by subcapsular inoculation of N1S1 cells into the left liver lobe. Gentle compression with gauze for hemostasis was used to prevent cell reflux. The abdominal incision was closed using interrupted Vicryl sutures for abdominal muscle and subcuticular suture for the skin, followed by the application of Vetbond tissue adhesive (3M, St. Paul, MN) followed by recovery from anesthesia. Intratumoral injection of the ionic liquid mixture was performed in three groups of rats bearing 0.5 cm^3 N1S1 tumor lesions measured with ultrasound. […] All solutions contained 0.25 mg/mL indocyanine green (ICG, Sigma-Aldrich, St. Louis, MO) solubilized in normal saline. Following intratumoral injections, treated rats were allowed to survive for 2 weeks after treatment, and tumor volume was documented using ultrasound. N1S1 tumor progression and treatment response was assessed using percutaneous ultrasonography. Selected focal zone depth, gain, and tissue harmonic settings were optimized during the acquisition of the initial imaging at baseline, and the same parameters were applied during acquisition after intratumoral injection of LATTE mixture. Serial ultrasound examinations were performed on rat livers following N1S1 inoculation to confirm tumor formation and assess tumor volume. Rats were anesthetized using a gas mixture of 2-3% isoflurane in 100% oxygen via a nose cone. Rats were secured in a supine position on an electronically controlled warming platform to maintain the temperature at 37° C. during the imaging procedure. The abdominal area was shaved and prepped with depilatory cream (Nair, Church& Dwight Co. INC). Initially, abdominal sonography was performed to delineate tumor mass boundaries in grayscale (B-mode) using ACUSON 52000 system (Siemens Inc., Germany) and a multi-frequency linear transducer (9L4, 9.0 MHz). The transducer was positioned to obtain 2D scans via the subcostal window to document liver tumors and measure lesion diameter. […] Tumor volumes were calculated as following: V=(4/3)×π×(1/2) SI×(1/2)LM×1/2 AP. Color Doppler images were also acquired to detect the distribution of the tumor blood flow weekly.

## choline-geranate [LATTE]
Pig liver; 2 mL of 25% LATTE mixed with ICG
  liver histology: total destruction of tissue architecture
Pig liver; transcutaneous injection in pigs
  ablation zone size: up to 4 cm
VX2 liver tumor; compared to saline injected tumors
  tumor histology: extensive necrosis
VX2 liver tumor; following injection
  tumor perfusion (Doppler, laser speckle): markedly diminished perfusion
[1]
  effective concentration that causes 50% cell death (EC50): 0.18-0.3%
[2]
  effective dose (EC50), fractional cell viability: 0.3%
[3]
  effective dose (EC50), fractional cell viability: 0.2%
Human blood clot; overlayed with LATTE
  clot dissolution, coagulated blood in multi-wells: clot was dissolved
Human blood clot; petri dish, incubation with LATTE
  lysis of blood clot formed in the tube: complete lysis
[4]
  ALP: *211 ± 29 U/L
  ALT: 57 ± 13 U/L
  BUN: **25 ± 2.4 mg/dL
  CRE: 0.3 ± 0.04 mg/dL
  CRP: 459 ± 38 ng/mL
  GLU: 268 ± 75 mg/dL
  Total Protein: 5.2 ± 0.3 g/dL
  liver and renal function from serum samples: normal liver and renal function
